Laboratory results: patent US20080108600A1, “Polycyclic Pyridines as Potassium Ion Channel Modulators” (Icagen, Inc., priority 2004, published 2008)
Where “and” joins values, the source holds several entries; their conditions need not be identical. Identical values can stand only once. Counter-ions that a name gives are not always drawn.

molecular target: hSK2 (Homo sapiens, UniProt Q9H2S1); assay: 86Rb+ efflux assay for compound activity towards hSK channels; assay type: cell-based; settings: 86Rb+ efflux stimulated with calcium ionophore; drug 0.01 to 30 μM; read-out: hSK2 Inhibitory Activity
Procedure: 24.1 Assay for Compound Activity Towards hSK Channels
Cells expressing small conductance, calcium activated potassium channels, such as SK-like channels were loaded with ^86Rb^+ by culture in media containing ^86RbCl. Following loading, the culture media was removed and the cells were washed in EBSS to remove residual traces of ^86Rb^+. Cells were preincubated with the drug (0.01 to 30 μM in EBSS) and then ^86Rb^+ efflux was stimulated by exposing cells to EBSS solution supplemented with a calcium ionophore, such as ionomycin, in the continued presence of the drug. After a suitable efflux period, the EBSS/ionophore solution was removed from the cells and the ^86Rb^+ content was determined by Cherenkov counting (Wallac Trilux). Cells were then lysed with a SDS solution and the ^86Rb^+ content of the lysate was determined. Percent ^86Rb^+ efflux was calculated according to the following equation:
(^86Rb^+ content in EBSS/(86Rb^+ content in EBSS+^86Rb^+ content of the lysate))×100

SMILES	IC50
COc1ccc(-c2ncc(Cl)s2)nc1Nc1ccc(N2CCCC2=O)cn1 [1-{6-[6-(5-Chloro-thiazol-2-yl)-3-methoxy-pyridin-2-ylamino]-pyridin-3-yl}-pyrrolidin-2-one]	< 0.1 µM
CCOC(=O)CCc1ccc(Nc2cccc(-c3nccs3)n2)nc1 [3-[6-(6-Thiazol-2-yl-pyridin-2-ylamino)-pyridin-3-yl]-propionic acid ethyl ester]	< 0.1 µM
c1ccc(CNCc2ccc(Nc3cccc(-c4nccs4)n3)nc2)cc1 [5-[(Benzylamino)methyl]-N-[6-(1,3-thiazol-2-yl)pyridin-2-yl]pyridin-2-amine dihydrochloride]	0.1 to 0.5 µM
COC(=O)c1ccc(Nc2cccc(-n3cccn3)n2)nc1 [6-(6-Pyrazol-1-yl-pyridin-2-ylamino)-nicotinic acid methyl ester]	0.1 to 0.5 µM
Cc1ccc(-c2cccc(-c3nc4ccc(Cl)cc4[nH]3)n2)nc1 [6′-(6-Chloro-1H-benzoimidazol-2-yl)-5-methyl-[2,2′]bipyridinyl]	0.1 to 0.5 µM
O=C1CCCCN1c1ccc(Nc2cccc(-n3cccn3)n2)nc1 [6′-(6-Pyrazol-1-yl-pyridin-2-ylamino)-3,4,5,6-tetrahydro-[1,3′]bipyridinyl-2-one]	< 0.1 µM
CCc1cnc(-c2cccc(Nc3ccc(N4CCCCC4=O)cn3)n2)s1 [6′-[6-(5-Ethyl-thiazol-2-yl)-pyridin-2-ylamino]-3,4,5,6-tetrahydro-[1,3′]bipyridinyl-2-one]	0.1 to 0.5 µM
COc1ccc(-c2cnccn2)nc1Nc1ccc(N2CCCCC2)cn1 [(3-Methoxy-6-pyrazin-2-yl-pyridin-2-yl)-(3,4,5,6-tetrahydro-2H-[1,3′]bipyridinyl-6′-yl)-amine]	< 0.1 µM
COc1ccc(-c2cnccn2)nc1Nc1ccc(N2CCN(C)CC2)cn1 [(3-Methoxy-6-pyrazin-2-yl-pyridin-2-yl)-[5-(4-methyl-piperazin-1-yl)-pyridin-2-yl]-amine]	< 0.1 µM
COc1ccc(-c2nccs2)nc1Nc1ccc(-c2ccccc2)cn1 [(3-Methoxy-6-thiazol-2-yl-pyridin-2-yl)-(5-phenyl-pyridin-2-yl)-amine]	0.1 to 0.5 µM
COc1ccc(-c2nccs2)nc1Nc1ccc(N2CCNC(C)C2)cn1 (stereo not shown) [(3-Methoxy-6-thiazol-2-yl-pyridin-2-yl)-[5-(3-methyl-piperazin-1-yl)-pyridin-2-yl]-amine]	0.1 to 0.5 µM
COc1ccc(-c2nccs2)nc1Nc1ccc(N2CCCN(C)CC2)cn1 [(3-Methoxy-6-thiazol-2-yl-pyridin-2-yl)-[5-(4-methyl-[1,4]diazepan-1-yl)-pyridin-2-yl]-amine]	0.1 to 0.5 µM
COc1ccc(-c2nccs2)nc1Nc1ccccn1 [(3-Methoxy-6-thiazol-2-yl-pyridin-2-yl)-pyridin-2-yl-amine]	< 0.1 µM
Brc1ccc(Nc2cccc(-n3cccn3)n2)nc1 [(5-Bromo-pyridin-2-yl)-(6-pyrazol-1-yl-pyridin-2-yl)-amine]	< 0.1 µM
Brc1ccc(Nc2cccc(-c3nccs3)n2)nc1 [(5-Bromo-pyridin-2-yl)-(6-thiazol-2-yl-pyridin-2-yl)-amine]	< 0.1 µM
c1cc(Nc2nnc(C3CC3)s2)nc(-c2nccs2)c1 [(5-Cyclopropyl-[1,3,4]thiadiazol-2-yl)-(6-thiazol-2-yl-pyridin-2-yl)-amine]	0.1 to 0.5 µM
CCc1ccc(Nc2cccc(-c3nccs3)n2)nc1 [(5-Ethyl-pyridin-2-yl)-(6-thiazol-2-yl-pyridin-2-yl)-amine]	< 0.1 µM
Cc1cnn(-c2cccc(Nc3ccc(F)cn3)n2)c1 [(5-Fluoro-pyridin-2-yl)-[6-(4-methyl-pyrazol-1-yl)-pyridin-2-yl]-amine]	< 0.1 µM
c1cc(Nc2ccc(-c3ccco3)cn2)nc(-c2cnccn2)c1 [(5-Furan-2-yl-pyridin-2-yl)-(6-pyrazin-2-yl-pyridin-2-yl)-amine]	< 0.1 µM
c1cc(Nc2ccc(-c3ccco3)cn2)nc(-c2nccs2)c1 [(5-Furan-2-yl-pyridin-2-yl)-(6-thiazol-2-yl-pyridin-2-yl)-amine]	< 0.1 µM
C=C(C)c1ccc(Nc2cccc(-n3cc(C)cn3)n2)nc1 [(5-Isopropenyl-pyridin-2-yl)-[6-(4-methyl-pyrazol-1-yl)-pyridin-2-yl]-amine]	< 0.1 µM
COc1ccc(-c2cnccn2)nc1Nc1ccc(C(C)C)cn1 [(5-Isopropyl-pyridin-2-yl)-(3-methoxy-6-pyrazin-2-yl-pyridin-2-yl)-amine]	0.1 to 0.5 µM
COc1ccc(-c2nccs2)nc1Nc1ccc(C(C)C)cn1 [(5-Isopropyl-pyridin-2-yl)-(3-methoxy-6-thiazol-2-yl-pyridin-2-yl)-amine]	< 0.1 µM and 0.1 to 0.5 µM
COc1ccc(-c2nccs2)nc1Nc1ccc(NC2CN3CCC2CC3)cn1 (stereo not shown) [N^5-(1-Aza-bicyclo[2.2.2]oct-3-yl)-N^2-(3-methoxy-6-thiazol-2-yl-pyridin-2-yl)-pyridine-2,5-diamine]	0.1 to 0.5 µM

Results, then the molecule that gave them:

IC50	SMILES
< 0.1 µM	COc1ccc(-c2ccccn2)nc1Nc1ccc(C(C)C)cn1 [(5-Isopropyl-pyridin-2-yl)-(5-methoxy-[2,2′]bipyridinyl-6-yl)-amine]
< 0.1 µM	Cc1cnn(-c2cccc(Nc3ccc(C(C)C)cn3)n2)c1 [(5-Isopropyl-pyridin-2-yl)-[6-(4-methyl-pyrazol-1-yl)-pyridin-2-yl]-amine]
< 0.1 µM	COc1ccc(-c2ccccn2)nc1Nc1ccc(N2CCCCC2)cn1 [(5-Methoxy-[2,2′]bipyridinyl-6-yl)-(3,4,5,6-tetrahydro-2H-[1,3′]bipyridinyl-6′-yl)-amine]
< 0.1 µM	COc1ccc(-c2ccccn2)nc1Nc1ccc(N2CCN(C)CC2)cn1 [(5-Methoxy-[2,2′]bipyridinyl-6-yl)-[5-(4-methyl-piperazin-1-yl)-pyridin-2-yl]-amine]
< 0.1 µM	COc1ccc(Nc2cccc(-n3cc(C)cn3)n2)nc1 [(5-Methoxy-pyridin-2-yl)-[6-(4-methyl-pyrazol-1-yl)-pyridin-2-yl]-amine]
< 0.1 µM	c1ccc(-c2cc(Nc3cccc(-c4nccs4)n3)[nH]n2)cc1 [(5-Phenyl-2H-pyrazol-3-yl)-(6-thiazol-2-yl-pyridin-2-yl)-amine]
0.1 to 0.5 µM	CC(C)(C)c1ccc(Nc2cccc(-c3nccs3)n2)nc1 [(5-tert-Butyl-pyridin-2-yl)-(6-thiazol-2-yl-pyridin-2-yl)-amine]
0.5 to 1 µM	Fc1cccc(Nc2cccc(-c3nccs3)n2)n1 [(6-Fluoro-pyridin-2-yl)-(6-thiazol-2-yl-pyridin-2-yl)-amine]
< 0.1 µM	c1cc(Nc2cc3ccccc3cn2)nc(-c2nccs2)c1 [Isoquinolin-3-yl-(6-thiazol-2-yl-pyridin-2-yl)-amine]
0.1 to 0.5 µM	COc1ccc(-c2nccs2)nc1Nc1ccc(N(C)C2CCN(C)C2)cn1 (stereo not shown) [N^2-(3-Methoxy-6-thiazol-2-yl-pyridin-2-yl)-N^5-methyl-N^5-(1-methyl-pyrrolidin-3-yl)-pyridine-2,5-diamine]
< 0.1 µM	COCCN(C)c1ccc(Nc2nc(-c3ncc(Cl)s3)ccc2OC)nc1 [N^2-[6-(5-Chloro-thiazol-2-yl)-3-methoxy-pyridin-2-yl]-N^5-(2-methoxy-ethyl)-N^5-methyl-pyridine-2,5-diamine]
< 0.1 µM	COCCN(C)c1ccc(Nc2cccc(-c3ncc(Cl)s3)n2)nc1 [N^2-[6-(5-Chloro-thiazol-2-yl)-pyridin-2-yl]-N^5-(2-methoxy-ethyl)-N^5-methyl-pyridine-2,5-diamine]
< 0.1 µM	COc1ccc(-c2nccs2)nc1Nc1ccc(-c2ccccn2)cn1 [[2,3′]Bipyridinyl-6′-yl-(3-methoxy-6-thiazol-2-yl-pyridin-2-yl)-amine]
< 0.1 µM	c1cncc(-c2ccc(Nc3cccc(-c4cnccn4)n3)nc2)c1 [[3,3′]Bipyridinyl-6-yl-(6-pyrazin-2-yl-pyridin-2-yl)-amine]
< 0.1 µM	COc1ccccc1-c1ccc(Nc2cccc(-n3cc(C)cn3)n2)nc1 [[5-(2-Methoxy-phenyl)-pyridin-2-yl]-[6-(4-methyl-pyrazol-1-yl)-pyridin-2-yl]-amine]
< 0.1 µM	c1cc(Nc2ccc(CN3CCc4ccccc4C3)cn2)nc(-c2nccs2)c1 [[5-(3,4-Dihydro-1H-isoquinolin-2-ylmethyl)-pyridin-2-yl]-(6-thiazol-2-yl-pyridin-2-yl)-amine]
0.5 to 1 µM	CN1CCN(c2ccc(Nc3cccc(-n4cccn4)n3)nc2)CC1 [[5-(4-Methyl-piperazin-1-yl)-pyridin-2-yl]-(6-pyrazol-1-yl-pyridin-2-yl)-amine]
< 0.1 µM	Cc1ccc(-c2ccc(Nc3cccc(-c4nccs4)n3)nc2)o1 [[5-(5-Methyl-furan-2-yl)-pyridin-2-yl]-(6-thiazol-2-yl-pyridin-2-yl)-amine]
0.1 to 0.5 µM	Cc1cnn(-c2cccc(Nc3ccc(N4CCC(C)CC4)cn3)n2)c1 [[6-(4-Methyl-pyrazol-1-yl)-pyridin-2-yl]-(4-methyl-3,4,5,6-tetrahydro-2H-[1,3′]bipyridinyl-6′-yl)-amine]
0.1 to 0.5 µM	COc1ccc(-c2ncc(Cl)s2)nc1Nc1ccc(N2CCCCC2)cn1 [[6-(5-Chloro-thiazol-2-yl)-3-methoxy-pyridin-2-yl]-(3,4,5,6-tetrahydro-2H-[1,3′]bipyridinyl-6′-yl)-amine]
< 0.1 µM	COc1ccc(-c2ncc(Cl)s2)nc1Nc1ccc(N2CCC(OC)CC2)cn1 [[6-(5-Chloro-thiazol-2-yl)-3-methoxy-pyridin-2-yl]-(4-methoxy-3,4,5,6-tetrahydro-2H-[1,3′]bipyridinyl-6′-yl)-amine]
< 0.1 µM	COc1ccc(-c2ncc(Cl)s2)nc1Nc1ccc(N2CCOCC2)cn1 [[6-(5-Chloro-thiazol-2-yl)-3-methoxy-pyridin-2-yl]-(5-morpholin-4-yl-pyridin-2-yl)-amine]
